Values of other authors, collected in patent US11214591B2, “Enzyme compositions, steroid derivatives, enzyme inhibitors, and methods of making same for pharmaceutical applications” (BOARD OF REGENTS, THE UNIVERSITY OF TEXAS SYSTEM, priority 2018, dated 2022).

Key:
[1] = male rats
[2] = in vivo
[3] = in vivo; remark: listed apart in the source
[4] = mice feeding study; bile acid composition of micelles

For `C[C@]12CC[C@H](O)CC1=CC(=O)[C@@H]1[C@@H]2CC[C@]2(C)C(=O)CC[C@@H]12` [7-Keto DHEA, 7-keto dehydroepiandrosterone], which “voluntary intake of ethanol” value [1] is on record?
The value was “decreased voluntary intake of ethanol”.

What does the source list for `CC(=O)O[C@H]1CC[C@@]2(C)C(=CC(=O)[C@@H]3[C@@H]2CC[C@]2(C)C(=O)CC[C@@H]32)C1` [7-keto DHEA-3OAc, 7-keto dehydroepiandrosterone-3-acetate]?
resting metabolic rate associated with dieting [2]: reverse the resting metabolic rate associated with dieting; PTSD symptoms [3]: reduce post-traumatic stress disorder (PTSD) symptoms

Which cholesterol absorption [4] does the source give for `C[C@H](CCC(=O)O)[C@H]1CC[C@H]2[C@@H]3[C@H](O)C[C@@H]4C[C@H](O)CC[C@]4(C)[C@H]3CC[C@]12C` [chenodeoxycholic acid] here?
Its cholesterol absorption is 60%.
